# Results as given in patent publication US20260217706A1, “HETEROCYCLIC COMPOUNDS, PREPARATION METHOD THEREFOR AND USE THEREOF” (GUANGZHOU YUFAN NANTU BIOTECHNOLOGIES CO., LTD, priority 2023, published 2026).
# Biological target: CBL-B protein (Homo sapiens, UniProt Q13191)
# Assay: CBL-B binding experiment (Streptavidin-Tb cryptate / Ligand L1 displacement)
# Conditions: 8 nM CBL-B protein, 25° C., 60 minutes; Ki=Relative IC50/2
# Procedure: The reaction system mainly includes 1× buffer, 20 mM HEPES pH 7.5, 150 mM NaCl, 0.01% Triton X-100, 0.5 mM TCEP, and 0.1% ug/ml BSA. The compound is continuously diluted with DMSO for 10 concentration points, and 150 nL is transferred to the experimental plate. The experimental reaction begins after adding 8 nM of CBL-B protein and the reaction is carried out at 25° C. for 60 minutes. […] After an additional 60 minutes of incubation at room temperature, the experimental plate is read using an EnVision plate. The luminescence signal values were converted to percentage inhibition rates. Inhibition %=(Sample value−Maximum value)/(Minimum value−Maximum value)×100. The minimum value refers to the measured value in the wells without CBL-B protein but with DMSO and Ligand, while the maximum value refers to the measured value in the wells with DMSO, CBL-B protein, and Ligand. The IC50 values are calculated by XLFit (version 5.3.1.3) in Excel. Equation: Y=Bottom+(Top−Bottom)/(1+(IC50/X)^HillSlope); Ki=Relative IC50/2.
# Chain of CBL-B protein (Q13191 whole entry): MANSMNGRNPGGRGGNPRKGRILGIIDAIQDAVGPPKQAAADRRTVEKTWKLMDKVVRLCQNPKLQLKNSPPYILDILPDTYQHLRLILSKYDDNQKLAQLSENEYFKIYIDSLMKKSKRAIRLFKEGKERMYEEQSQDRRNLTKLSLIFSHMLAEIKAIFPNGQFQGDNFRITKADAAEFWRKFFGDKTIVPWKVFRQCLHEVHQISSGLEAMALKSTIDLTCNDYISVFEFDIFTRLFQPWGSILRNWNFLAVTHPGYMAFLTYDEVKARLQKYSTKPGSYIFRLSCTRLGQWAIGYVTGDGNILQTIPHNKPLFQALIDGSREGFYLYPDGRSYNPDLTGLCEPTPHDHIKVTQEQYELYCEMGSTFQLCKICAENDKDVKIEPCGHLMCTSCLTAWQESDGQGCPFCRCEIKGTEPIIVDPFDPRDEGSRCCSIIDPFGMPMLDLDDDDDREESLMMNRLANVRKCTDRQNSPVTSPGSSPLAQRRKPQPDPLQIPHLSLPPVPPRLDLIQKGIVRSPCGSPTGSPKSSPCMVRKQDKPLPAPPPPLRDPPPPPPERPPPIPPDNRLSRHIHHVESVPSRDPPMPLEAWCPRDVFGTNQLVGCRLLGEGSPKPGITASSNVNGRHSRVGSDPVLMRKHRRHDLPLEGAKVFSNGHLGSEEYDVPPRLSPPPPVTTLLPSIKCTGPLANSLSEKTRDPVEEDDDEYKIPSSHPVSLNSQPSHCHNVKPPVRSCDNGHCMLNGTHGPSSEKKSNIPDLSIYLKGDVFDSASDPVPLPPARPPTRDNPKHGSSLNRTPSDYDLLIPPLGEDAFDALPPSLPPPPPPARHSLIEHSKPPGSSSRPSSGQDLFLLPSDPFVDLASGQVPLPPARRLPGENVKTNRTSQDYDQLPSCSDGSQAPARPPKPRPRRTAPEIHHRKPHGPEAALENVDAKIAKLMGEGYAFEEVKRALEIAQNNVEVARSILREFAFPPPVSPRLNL
row,SMILES,Ki [nM]
1,"Cn1cnnc1C1(c2cccc(-n3cc(C(F)(F)F)c4cc(CN5CC6CC5CC6(F)F)[nH]c4c3=O)c2)CCC1 (stereo not drawn) [Compound T105, 2-[(5,5-difluoro-2-azabicyclo[2.2.1]heptan-2-yl)methyl]-6-[3-[1-(4-methyl-1,2,4-triazol-3-yl)cyclobutyl]phenyl]-4-(trifluoromethyl)-1H-pyrrolo[2,3-c]pyridin-7-one]",< 50
2,"Cn1cnnc1C1(c2cccc(-n3cc(C(F)(F)F)c4cc(CN5CC(F)CC(CO)C5)[nH]c4c3=O)c2)CCC1 (stereo not drawn) [Compound T106, 2-[[3-fluoro-5-(hydroxymethyl)-1-piperidyl]methyl]-6-[3-[1-(4-methyl-1,2,4-triazol-3-yl)cyclobutyl]phenyl]-4-(trifluoromethyl)-1H-pyrrolo[2,3-c]pyridin-7-one]",< 50
3,"CO[C@@H]1CCN(Cc2cc3c(C(F)(F)F)cn(-c4cccc(C5(c6nncn6C)CCC5)c4)c(=O)c3[nH]2)C[C@@H]1F [Compound T107, 2-(((3S,4R)-3-fluoro-4-methoxypiperidin-1-yl)methyl)-6-(3-(1-(4-methyl-4H-1,2,4-triazol-3-yl)cyclobutyl)phenyl)-4-(trifluoromethyl)-1,6-dihydro-7H-pyrrolo[2,3-c]pyridin-7-one]",< 50
4,"CO[C@H]1CCN(Cc2cc3c(C(F)(F)F)cn(-c4cccc(C5(c6nncn6C)CCC5)c4)c(=O)c3[nH]2)C[C@H]1F [Compound T108, 2-(((3R,4S)-3-fluoro-4-methoxypiperidin-1-yl)methyl)-6-(3-(1-(4-methyl-4H-1,2,4-triazol-3-yl)cyclobutyl)phenyl)-4-(trifluoromethyl)-1,6-dihydro-7H-pyrrolo[2,3-c]pyridin-7-one]",< 50
5,"C[C@H]1CN(Cc2cc3c(C(F)(F)F)cn(-c4cccc(C5(c6nncn6C)CCC5)c4)c(=O)c3[nH]2)CCC1(F)F [Compound T110, 2-[[(3S)-4,4-difluoro-3-methyl-1-piperidyl]methyl]-6-[3-[1-(4-methyl-1,2,4-triazol-3-yl)cyclobutyl]phenyl]-4-(trifluoromethyl)-1H-pyrrolo[2,3-c]pyridin-7-one]",< 50
6,"Cn1cnnc1C1(c2cccc(-n3cc(C(F)(F)F)c4cc(CN5CCC(C(F)F)CC5)[nH]c4c3=O)c2)CCC1 [Compound T112, 2-[[4-(difluoromethyl)-1-piperidyl]methyl]-6-[3-[1-(4-methyl-1,2,4-triazol-3-yl)cyclobutyl]phenyl]-4-(trifluoromethyl)-1H-pyrrolo[2,3-c]pyridin-7-one]",< 50
7,"C[C@@H]1CCN(Cc2cc3c(C(F)(F)F)cn(-c4cccc(C5(c6nncn6C)CCC5)c4)c(=O)c3[nH]2)CC1(F)F [Compound T115, (R)-2-((3,3-difluoro-4-methylpiperidin-1-yl)methyl)-6-(3-(1-(4-methyl-4H-1,2,4-triazol-3-yl)cyclobutyl)phenyl)-4-(trifluoromethyl)-1,6-dihydro-7H-pyrrolo[2,3-c]pyridin-7-one]",50 to 100
8,"C[C@H]1CCN(Cc2cc3c(C(F)(F)F)cn(-c4cccc(C5(c6nncn6C)CCC5)c4)c(=O)c3[nH]2)CC1(F)F [Compound T116, (S)-2-((3,3-difluoro-4-methylpiperidin-1-yl)methyl)-6-(3-(1-(4-methyl-4H-1,2,4-triazol-3-yl)cyclobutyl)phenyl)-4-(trifluoromethyl)-1,6-dihydro-7H-pyrrolo[2,3-c]pyridin-7-one]",50 to 100
9,"CCN(CC)Cc1cc2c(C(F)(F)F)cn(-c3cccc([C@]4(c5nncn5C)C[C@@H](OC)C4)c3)c(=O)c2[nH]1 [Compound T117, 2-((diethylamino)methyl)-6-(3-((1s,3s)-3-methoxy-1-(4-methyl-4H-1,2,4-triazol-3-yl)cyclobutyl)phenyl)-4-(trifluoromethyl)-1,6-dihydro-7H-pyrrolo[2,3-c]pyridin-7-one]",< 50
